Read-outs that look alike come from different tables or passages of the source.
Assays:
pancreatic cancer = conditions: cited from earlier work; for overall survival: Folfirinox regimen vs gemcitabine
DMBA breast tumors = test: DMBA breast tumor model, TSC before chemotherapy; format: in vivo; conditions: TSC and control groups
Description: Breast tumors were induced through injection of DMBA (dimethylbenzantracene) under the mammary tissue of female rats. The tumors usually grow in most rats and reach measurable conditions after 10 days.
The following studies used a method in which a 3-mL syringe is filled first with 1 ml of DMBA dissolved in sunflower seed oil (20 mg DMBA per mL of solution). Following that, 2 mL's of air are pulled into the syringe. The needle of the syringe is then inserted under the mammary tissue near a hind leg and the air in the syringe is carefully injected. The injection of the air forms a “pocket”, and then the 1 mL of DMBA solution is injected into that pocket.
After the tumors have grown up (about 10 days), their volumes are estimated by measuring the diameter (d) and the length (L) of the football-shaped tumors formed. This is done using calipers after feeling the tumor with one's fingers. To estimate the volume of the tumor, you multiply the diameter squared times the length and divide by 2: Tumor volume (in mm3)={(d in mm)^22}×(L in mm)
TSC or saline (controls) was injected in the tail vein of the rats at a volume of 0.1 mL and a dose of 0.25 mg/kg TSC about 1-2 hours before the chemotherapeutic agent was injected intraperitoneally (IP) in the rats.
In order to understand which dosages are efficacious when used with chemotherapy, a rat model of breast tumors was used. The model involves injecting the chemical dimethylbenzanthracene (DMBA) under the mammary gland of a female Sprague-Dawley rat. After a few days, tumors begin to grow and can be measured by feeling the football-shaped tumor under the skin and measured using calipers.

[1] = test system: metastatic pancreatic cancer; conditions: treatment naive patients with metastatic cancer; nab-paclitaxel plus gemcitabine vs gemcitabine; cited from earlier work
[2] = test system: metastatic pancreatic cancer; conditions: metastatic disease, erlotinib with gemcitabine vs gemcitabine alone, cited from earlier work; for one-year survival rate: P=0.023; for median overall survival: P=0.038
newly diagnosed GBM = conditions: cited from earlier work
recurrent GBM = conditions: cited from earlier work

In the case of `Nc1ccn([C@@H]2O[C@H](CO)[C@@H](O)C2(F)F)c(=O)n1` [gemcitabine, reference compound], the overall survival (pancreatic cancer) is listed as 6.8 months, the mortality (DMBA breast tumors; gemcitabine 5 mg/kg IP on days 0, 3) is listed as “Most rats in both groups were dead on Day 7” and the mortality (DMBA breast tumors; gemcitabine 10 mg/kg IP on days 0, 3) is listed as “Most rats in both groups were dead on Day 6”. The overall survival [1] was 6.7 months, the one-year survival rate [2] was 17% and the median overall survival [2] was 5.91 months.

For Folfirinox, the overall survival (pancreatic cancer) is listed as 11.1 months and the adverse events (pancreatic cancer; Folfirinox treatment) is listed as “accompanied by serious adverse events”.

In the case of bevacizumab, the “symptom burden, quality of life, neurocognitive function” value (newly diagnosed GBM; human, in vivo) is listed as “increased symptom burden, a worse quality of life, and a decline in neurocognitive function”, the progression free survival (newly diagnosed GBM; radiation, TMZ and bevacizumab vs only radiation and TMZ, both studies) is listed as “increase in progression free survival” and the overall survival (newly diagnosed GBM; radiation, TMZ and bevacizumab vs only radiation and TMZ, two clinical trials) is listed as “no difference in overall survival”. The overall six-month survival (recurrent GBM; Phase 2 study, recurrent GBM) was 54%, the six-month progression-free survival (recurrent GBM; Phase 2 study, recurrent GBM, historical 9-15%) was 25% and the six-month progression-free survival (recurrent GBM; another Phase 2 study, lower dose but higher frequency) was 42.6%.

For `C#Cc1cccc(Nc2ncnc3cc(OCCOC)c(OCCOC)cc23)c1` [erlotinib], the one-year survival rate [2] is given as 23% and the median overall survival [2] is given as 6.24 months.

From patent publication US11185523B2, “Use of bipolar trans carotenoids with chemotherapy and radiotherapy for treatment of cancer” (DIFFUSION PHARMACEUTICALS LLC, priority 2016, dated 2021)
